Data taken from article PMC10985088, “Synthesis and biological evaluation of echinomycin analogues as potential colon cancer agent” (Scientific Reports, 2024).

Experiments:
[1] = set-up: method as in PMID 2737217; details: doses of 60 and 120 μg/m^2; cited from earlier work
[2] = Hepatic microsomal stability assay, mouse; type: in vitro ADME; details: microsomes, 1 μM, 0.2 mg/mL microsomes, 37 °C, 30 min
Method: (§1) Before investigating the in vivo efficacy of 3, its metabolic stability was evaluated by treatment with human or mouse liver microsomes at 37 °C for 30 min, and the remaining analogues were analyzed by LC–MS/MS (Table 3). […] This means that approximately 67% of 3 was unaffected by human liver microsomes.
(§2) Basically, the analysis was performed using methods previously reported. Disappearance of the parent compound over time was measured by using the amount of drug at time zero as a reference. After 5 min of preincubation, 1 mM NADPH (final concentration, the same applies to the following, NADPH( +)) or 0.1 M phosphate buffer (pH 7.4, NADPH(−))) was added to a mixture containing 1 μM of the test compound, 0.2 mg/mL of human or mouse liver microsomes (Sekisui XenoTech LLC (Kansas City, KS)), 1 mM EDTA and 0.1 M phosphate buffer (pH 7.4) and incubated at 37 °C for 30 min by rotation at 60 rpm. An aliquot of 50 μL of the incubation mixture was sampled and added to 250 μL of chilled acetonitrile/internal standard (IS). After centrifuging for 15 min at 3150×g (4 °C), the supernatants were analyzed by LC–MS/MS. Hepatic microsomal stability (mL/min/kg, CLint) was calculated according to the previous report, using 48.8 and 45.4 mg MS protein/g liver and 25.7 and 87.5 g liver/kg body weight as scaling factors for human and mouse, respectively.
(§3) Basically, the analysis was performed using methods previously reported. An LC-MS8060 instrument equipped with a Shimadzu Nexera series LC system (Shimadzu, Kyoto, Japan) was used. All compounds were analyzed in multi-reaction monitoring mode under electron spray ionization conditions. The analytical column used was a […] C18 MGIII (3 μm × 2.0 mmID × 35 mm; OSAKA SODA, Osaka, Japan) at 50 °C. The gradient mobile phase consisted of 0.1% formic acid in water (mobile phase A,) and 0.1% formic acid in acetonitrile (mobile phase B) at a total flow rate of 1 mL/min. The initial mobile phase composition was 10% B, which was held constant for 0.2 min, increased in a linear fashion to 90% B over 1 min, then held constant for 0.8 min, and finally brought back to the initial condition of 10% B over 0.01 min and re-equilibrated for 1 min. The transitions (precursor ion > product ion) of echinomycin, 3 and IS (methyl testosterone) are 1101.45 > 1053.5 (positive), 1083.5 > 523.95 (negative), and 303.1 > 109.1 (positive), respectively.

[3] = tested on: SW620 xenograft; assay: SW620 xenograft mouse model; type: in vivo; details: i.p. 0.04 and 0.4 µg/mouse daily for 10 days, compared to PBS-injected group
Method: Since the metabolic stability and identification of the maximum tolerated dose of 3 were confirmed, the effect of 3 on colon cancer progression in vivo was then investigated (Fig. 7). A xenograft model was generated by injecting a suspension of 2 × 10^6 SW620 cells into the backs of nude mice. The doses of the compounds were 0.04 and 0.4 µg/mouse, which correspond to approximately 1.6 and 16 μg/kg, respectively, according to the results obtained in Fig. S1. A solution of 1, 3, or PBS was injected intraperitoneally into each mouse, and tumor sizes were measured each day. […] Of note is the efficacy of tumor growth inhibition with 3.
Figure 7 In vivo anticancer activity of echinomycin and 3 on the SW620 xenograft mice model. Male BALB/C nude mice were administered by intraperitoneal injection with the vehicle, echinomycin and 3, at dosages of 0.04 and 0.4 µg/mice (n = 10 each group), every day for 10 days (a, b). Average tumor volume (c) was measured. Data are expressed as the mean ± standard error ([…]). *Indicates P < 0.05 by Student's t test. The error bars show the s.d. (n = 10).
Basically, the experiments were performed using methods previously reported. […] The tumor size was calculated by the following formula: Tumor size (mm^2) = (major diameter) × (minor diameter).

[4] = Hepatic microsomal stability assay, human; type: in vitro ADME; details: microsomes, 1 μM, 0.2 mg/mL microsomes, 37 °C, 30 min
Method: as §1, §2, §3

[5] = Investigation of maximum tolerated dose (body weight of mice); type: in vivo, mouse; details: 14 days
Method: Toxicity Body weight change is an indicator of systemic toxicity. Accordingly, the body weights of mice intraperitoneally treated with different doses (0.04 and 0.4 µg/mouse) of either 1 or 3 were measured (Fig. S1). […] A blood hematological examination (including nineteen parameters) was also conducted on these mice on Day 14 (Fig. S2). There were no significant changes in almost any of the parameters in the mice treated with either 1 or 3 at doses of 0.04 or 0.4 µg/mouse.

[6] = tested on: SW620 cells; assay: WST-8 cytotoxicity assay, SW620; details: read-out: IC50 SW620; human colon cancer cell, 72 h, mean ± SE (n = 3)
Method: With a range of chromophore analogues in hand, their toxicity to SW620 cells was investigated by WST assays.
Basically, the evaluation was performed using methods previously reported by our group[20],[23]. Cytotoxic activities of compounds against MIA PaCa-2 (American Type Culture Collection), SW620 (European Collection of Authenticated Cell Cultures) were measured by WST-8 assay according to manufacturer’s protocol. Briefly, cells (1 × 10^4 cells/well) in a 96-well plate were cultured in medium (for MIA PaCa-2, D-MEM (Wako, Japan) containing 10% fetal bovine serum (Funakoshi, Japan), 100 units/mL penicillin G and 100 µg/mL streptomycin (Wako, Japan), for SW620, RPMI-1640 (Wako, Japan) containing 10% fetal bovine serum, 100 units/mL penicillin G and 100 µg/mL streptomycin) were cultured at 37 °C for 24 h under 5% CO2 atmosphere. Then, cells were treated with test compounds (final DMSO concentration was 1%) at 37 °C for 72 h under 5% CO2 atmosphere. Then, cells were treated with a solution of Cell Counting Kit-8® (Dojindo, Japan) for 3 h. After that, cell viabilities were determined based on the measurement of absorption at 450 nm of the wells by using TECAN Infinite® M200 microplate reader. The results were expressed as a percentage of the negative control (cells treated with DMSO only), and that value was fixed at 100%.

CS[C@H]1SC[C@H]2C(=O)N(C)[C@@H](C(C)C)C(=O)OC[C@@H](NC(=O)c3cnc4ccccc4n3)C(=O)N[C@@H](C)C(=O)N(C)[C@@H]1C(=O)N(C)[C@@H](C(C)C)C(=O)OC[C@@H](NC(=O)c1cnc3ccccc3n1)C(=O)N[C@@H](C)C(=O)N2C [Compound 1, Echinomycin]
toxicity at lower doses in human clinical trials [1]: no observed toxicity
CLint scaled ([2]; NADPH(+), read-out: Metabolic stability (CLint) Mouse NADPH(+)): < 69.8 mL/min/kg
CLint scaled ([2]; NADPH(−), read-out: Metabolic stability (CLint) Mouse NADPH(−)): < 69.8 mL/min/kg
tumor growth [3]: significantly suppressed
CLint scaled ([4]; NADPH(+), read-out: Metabolic stability (CLint) Human NADPH(+)): < 22 mL/min/kg
CLint scaled ([4]; NADPH(−), read-out: Metabolic stability (CLint) Human NADPH(−)): < 22 mL/min/kg
body weight ([5]; i.p. 0.04 and 0.4 µg/mouse, daily): did not differ greatly from those of the control
dose up to which no significant toxicity is shown ([5]; i.p. daily, body weight and blood examination): ≥ 0.04 µg/mouse
IC50 [6]: 2.5 ± 0.8 nM
